Assay results reported in publication doi:10.1101/2021.04.08.439011v1 (biorxiv, 2021).

How the values were obtained:
Settings in all cases: 1 µM; binder
ADCK3 = ADCK3 (Homo sapiens, UniProt Q8NI60)
AURKB = AURKB (Homo sapiens, UniProt Q96GD4)
CSNK1A1 = CSNK1A1 (Homo sapiens, UniProt P48729)
CSNK1G3 = CSNK1G3 (Homo sapiens, UniProt Q9Y6M4)
DAPK3 = DAPK3 (Homo sapiens, UniProt O43293)
EGFR(G719C) = EGFR(G719C) (Homo sapiens, UniProt P00533, G719C)
EPHB3 = EPHB3 (Homo sapiens, UniProt P54753)
ERBB2 = ERBB2 (Homo sapiens, UniProt P04626)
FAK = FAK (Homo sapiens, UniProt Q05397)
FLT3(ITD,D835V) = FLT3(ITD,D835V) (Homo sapiens, UniProt P36888, D835V/ITD)
IKK-alpha = IKK-alpha (Homo sapiens, UniProt O15111)
KIT(D816V) = KIT(D816V) (Homo sapiens, UniProt P10721, D816V)
LCK = LCK (Homo sapiens, UniProt P06239)
LKB1 = LKB1 (Homo sapiens, UniProt Q15831)
MAK = MAK (Homo sapiens, UniProt P20794)
MEK3 = MEK3 (Homo sapiens, UniProt P46734)
MEK6 = MEK6 (Homo sapiens, UniProt P52564)
MLK1 = MLK1 (Homo sapiens, UniProt P80192)
MYLK4 = MYLK4 (Homo sapiens, UniProt Q86YV6)
PFTK1 = PFTK1 (Homo sapiens, UniProt O94921)
PIK3C2G = PIK3C2G (Homo sapiens, UniProt O75747)
PIP5K1C = PIP5K1C (Homo sapiens, UniProt O60331)
PLK2 = PLK2 (Homo sapiens, UniProt Q9NYY3)
PRKX = PRKX (Homo sapiens, UniProt P51817)
ROCK1 = ROCK1 (Homo sapiens, UniProt Q13464)
SRPK2 = SRPK2 (Homo sapiens, UniProt P78362)
TGFBR1 = TGFBR1 (Homo sapiens, UniProt P36897)
TYRO3 = TYRO3 (Homo sapiens, UniProt Q06418)
WEE2 = WEE2 (Homo sapiens, UniProt P0C1S8)
YANK1 = YANK1 (Homo sapiens, UniProt Q8WU08)

Sequence of FAK (Q05397 whole entry): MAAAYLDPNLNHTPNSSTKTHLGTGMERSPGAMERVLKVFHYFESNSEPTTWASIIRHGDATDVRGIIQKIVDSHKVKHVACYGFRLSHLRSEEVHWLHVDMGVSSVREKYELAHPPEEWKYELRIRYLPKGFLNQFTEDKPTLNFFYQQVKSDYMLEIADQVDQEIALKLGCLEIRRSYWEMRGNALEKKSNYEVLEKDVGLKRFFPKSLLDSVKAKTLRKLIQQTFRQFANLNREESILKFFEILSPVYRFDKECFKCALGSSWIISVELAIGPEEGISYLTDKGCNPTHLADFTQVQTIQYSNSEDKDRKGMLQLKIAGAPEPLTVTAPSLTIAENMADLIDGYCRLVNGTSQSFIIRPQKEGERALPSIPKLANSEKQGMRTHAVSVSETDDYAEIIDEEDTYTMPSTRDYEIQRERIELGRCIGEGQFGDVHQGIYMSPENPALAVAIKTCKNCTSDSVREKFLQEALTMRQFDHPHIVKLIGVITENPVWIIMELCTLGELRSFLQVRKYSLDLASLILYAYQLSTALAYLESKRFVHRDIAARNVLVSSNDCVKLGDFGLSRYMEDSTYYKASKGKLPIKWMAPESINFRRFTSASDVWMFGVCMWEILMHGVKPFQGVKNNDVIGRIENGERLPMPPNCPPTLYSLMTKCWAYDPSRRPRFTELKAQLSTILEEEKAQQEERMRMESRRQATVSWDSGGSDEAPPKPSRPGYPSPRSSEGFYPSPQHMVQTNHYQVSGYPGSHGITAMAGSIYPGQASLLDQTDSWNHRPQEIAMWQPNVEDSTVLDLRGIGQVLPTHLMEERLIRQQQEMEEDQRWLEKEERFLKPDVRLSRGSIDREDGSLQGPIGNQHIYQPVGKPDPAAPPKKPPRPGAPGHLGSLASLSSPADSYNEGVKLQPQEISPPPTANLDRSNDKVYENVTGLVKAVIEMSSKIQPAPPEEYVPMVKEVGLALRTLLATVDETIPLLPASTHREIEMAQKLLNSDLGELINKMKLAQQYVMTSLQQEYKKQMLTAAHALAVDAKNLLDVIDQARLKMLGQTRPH
Sequence of MLK1 (P80192 whole entry): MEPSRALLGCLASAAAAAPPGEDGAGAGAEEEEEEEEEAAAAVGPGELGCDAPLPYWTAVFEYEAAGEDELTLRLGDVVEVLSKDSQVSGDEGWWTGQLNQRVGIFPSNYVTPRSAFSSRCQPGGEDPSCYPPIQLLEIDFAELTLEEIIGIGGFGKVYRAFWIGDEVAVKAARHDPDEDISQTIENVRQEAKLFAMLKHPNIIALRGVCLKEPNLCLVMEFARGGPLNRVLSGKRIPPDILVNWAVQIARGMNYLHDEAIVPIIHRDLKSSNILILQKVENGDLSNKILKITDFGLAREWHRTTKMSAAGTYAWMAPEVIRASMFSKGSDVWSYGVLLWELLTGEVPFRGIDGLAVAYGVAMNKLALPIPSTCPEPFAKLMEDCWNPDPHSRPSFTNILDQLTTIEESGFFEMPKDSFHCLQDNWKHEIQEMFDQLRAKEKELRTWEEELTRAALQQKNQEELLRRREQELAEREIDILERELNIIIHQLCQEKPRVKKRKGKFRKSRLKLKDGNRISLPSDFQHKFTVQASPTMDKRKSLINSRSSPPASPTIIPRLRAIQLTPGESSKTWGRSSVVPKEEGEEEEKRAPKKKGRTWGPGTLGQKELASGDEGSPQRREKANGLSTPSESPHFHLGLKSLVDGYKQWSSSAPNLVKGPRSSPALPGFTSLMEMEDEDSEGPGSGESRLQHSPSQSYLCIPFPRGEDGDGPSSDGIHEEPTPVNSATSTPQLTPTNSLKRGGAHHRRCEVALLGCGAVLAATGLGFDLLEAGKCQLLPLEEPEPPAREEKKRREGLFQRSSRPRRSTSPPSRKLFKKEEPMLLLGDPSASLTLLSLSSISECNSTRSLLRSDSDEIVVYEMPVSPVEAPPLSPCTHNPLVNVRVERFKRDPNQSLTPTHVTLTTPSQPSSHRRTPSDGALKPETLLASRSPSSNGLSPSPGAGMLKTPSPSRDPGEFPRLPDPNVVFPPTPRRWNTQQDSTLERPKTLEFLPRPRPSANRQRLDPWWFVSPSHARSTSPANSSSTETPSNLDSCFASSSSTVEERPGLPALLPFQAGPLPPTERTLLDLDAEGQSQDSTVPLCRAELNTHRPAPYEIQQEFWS
Sequence of ROCK1 (Q13464 whole entry): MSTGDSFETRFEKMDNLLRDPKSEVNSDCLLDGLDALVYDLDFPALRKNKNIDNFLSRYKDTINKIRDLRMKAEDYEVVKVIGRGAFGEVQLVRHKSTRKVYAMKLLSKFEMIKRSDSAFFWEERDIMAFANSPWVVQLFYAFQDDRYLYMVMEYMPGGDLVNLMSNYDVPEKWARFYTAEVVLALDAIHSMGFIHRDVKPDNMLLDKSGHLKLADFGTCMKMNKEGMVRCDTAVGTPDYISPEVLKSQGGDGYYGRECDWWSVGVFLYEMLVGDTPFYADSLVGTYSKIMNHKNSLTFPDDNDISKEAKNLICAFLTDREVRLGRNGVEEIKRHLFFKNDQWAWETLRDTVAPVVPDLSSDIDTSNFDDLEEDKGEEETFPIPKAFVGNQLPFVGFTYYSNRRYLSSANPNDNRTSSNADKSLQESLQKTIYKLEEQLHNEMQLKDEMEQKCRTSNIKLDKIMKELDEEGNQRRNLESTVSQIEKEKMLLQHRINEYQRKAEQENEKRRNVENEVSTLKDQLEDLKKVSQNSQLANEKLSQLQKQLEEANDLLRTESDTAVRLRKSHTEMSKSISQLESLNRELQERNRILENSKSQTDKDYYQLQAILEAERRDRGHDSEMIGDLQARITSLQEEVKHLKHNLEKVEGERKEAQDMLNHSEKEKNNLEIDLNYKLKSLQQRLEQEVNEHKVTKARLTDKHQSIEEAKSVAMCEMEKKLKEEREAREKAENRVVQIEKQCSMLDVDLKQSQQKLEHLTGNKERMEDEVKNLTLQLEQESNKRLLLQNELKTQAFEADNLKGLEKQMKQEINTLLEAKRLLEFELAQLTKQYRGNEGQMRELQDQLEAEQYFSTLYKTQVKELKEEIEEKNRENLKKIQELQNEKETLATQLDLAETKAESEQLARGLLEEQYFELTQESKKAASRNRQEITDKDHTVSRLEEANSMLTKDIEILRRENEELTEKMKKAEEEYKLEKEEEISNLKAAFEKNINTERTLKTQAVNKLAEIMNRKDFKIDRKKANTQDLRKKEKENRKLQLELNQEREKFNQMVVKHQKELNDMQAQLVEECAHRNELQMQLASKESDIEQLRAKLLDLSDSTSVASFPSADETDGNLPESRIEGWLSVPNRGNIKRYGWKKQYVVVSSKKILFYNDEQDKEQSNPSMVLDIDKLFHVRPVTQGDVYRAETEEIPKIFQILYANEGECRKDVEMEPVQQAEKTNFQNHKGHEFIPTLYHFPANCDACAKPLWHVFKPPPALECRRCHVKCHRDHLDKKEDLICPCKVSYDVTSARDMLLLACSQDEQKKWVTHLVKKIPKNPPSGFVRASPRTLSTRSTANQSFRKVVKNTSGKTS
Sequence of EPHB3 (P54753 whole entry): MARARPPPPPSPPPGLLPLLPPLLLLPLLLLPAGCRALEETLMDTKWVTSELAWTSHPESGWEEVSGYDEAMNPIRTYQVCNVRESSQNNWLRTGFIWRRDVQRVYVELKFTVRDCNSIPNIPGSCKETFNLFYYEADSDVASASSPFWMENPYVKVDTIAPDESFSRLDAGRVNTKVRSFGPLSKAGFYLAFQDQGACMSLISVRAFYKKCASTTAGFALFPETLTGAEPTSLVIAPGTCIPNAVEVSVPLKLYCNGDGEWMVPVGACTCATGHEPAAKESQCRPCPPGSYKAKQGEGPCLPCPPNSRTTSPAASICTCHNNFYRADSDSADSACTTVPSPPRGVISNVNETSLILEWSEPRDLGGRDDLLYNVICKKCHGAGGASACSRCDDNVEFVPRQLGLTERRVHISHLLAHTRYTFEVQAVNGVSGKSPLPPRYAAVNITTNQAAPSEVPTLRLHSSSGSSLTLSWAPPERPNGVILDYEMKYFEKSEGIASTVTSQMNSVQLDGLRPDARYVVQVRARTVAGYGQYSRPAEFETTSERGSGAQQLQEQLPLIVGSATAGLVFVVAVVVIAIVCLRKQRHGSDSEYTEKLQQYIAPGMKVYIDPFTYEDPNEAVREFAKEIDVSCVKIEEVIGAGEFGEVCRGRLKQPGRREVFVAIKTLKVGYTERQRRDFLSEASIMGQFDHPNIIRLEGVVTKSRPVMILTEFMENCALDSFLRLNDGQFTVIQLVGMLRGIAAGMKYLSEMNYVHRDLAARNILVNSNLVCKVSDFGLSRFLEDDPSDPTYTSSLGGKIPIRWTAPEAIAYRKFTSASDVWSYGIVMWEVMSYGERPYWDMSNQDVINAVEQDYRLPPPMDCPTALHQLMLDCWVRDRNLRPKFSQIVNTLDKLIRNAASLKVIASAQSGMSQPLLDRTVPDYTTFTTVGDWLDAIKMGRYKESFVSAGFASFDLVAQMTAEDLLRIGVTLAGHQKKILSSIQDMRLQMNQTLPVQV
Sequence of DAPK3 (O43293 whole entry): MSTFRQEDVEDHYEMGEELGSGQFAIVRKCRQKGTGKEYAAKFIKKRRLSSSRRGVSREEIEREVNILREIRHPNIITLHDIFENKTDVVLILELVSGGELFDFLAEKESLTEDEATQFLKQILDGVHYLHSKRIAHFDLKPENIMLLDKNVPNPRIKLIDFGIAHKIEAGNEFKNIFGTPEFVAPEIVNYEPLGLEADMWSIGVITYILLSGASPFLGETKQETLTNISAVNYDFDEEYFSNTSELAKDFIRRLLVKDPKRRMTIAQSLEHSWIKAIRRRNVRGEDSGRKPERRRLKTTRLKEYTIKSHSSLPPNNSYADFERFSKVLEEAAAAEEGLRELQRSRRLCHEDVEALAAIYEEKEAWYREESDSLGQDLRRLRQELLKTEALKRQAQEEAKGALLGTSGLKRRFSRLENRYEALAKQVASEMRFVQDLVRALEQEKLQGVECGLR

## CNc1ncc2cc(-c3ccc(-c4cccc(C)n4)cc3Cl)c(=O)n(C[C@H]3OC[C@H](N)CO3)c2n1 [compound 6, G-5555]
ADCK3
  Percent Control: 100%
AURKB
  Percent Control: 23%
CSNK1A1
  Percent Control: 89%
CSNK1G3
  Percent Control: 100%
DAPK3
  Percent Control: 100%
EGFR(G719C)
  Percent Control: 100%
EPHB3
  Percent Control: 100%
ERBB2
  Percent Control: 100%
FAK
  Percent Control: 100%
FLT3(ITD,D835V)
  Percent Control: 74%
IKK-alpha
  Percent Control: 98%
KIT(D816V)
  Percent Control: 100%
LCK
  Percent Control: 11%
LKB1
  Percent Control: 100%
MAK
  Percent Control: 100%
MEK3
  Percent Control: 29%
MEK6
  Percent Control: 30%
MLK1
  Percent Control: 96%
MYLK4
  Percent Control: 100%
PFTK1
  Percent Control: 100%
PIK3C2G
  Percent Control: 100%
PIP5K1C
  Percent Control: 100%
PLK2
  Percent Control: 84%
PRKX
  Percent Control: 100%
ROCK1
  Percent Control: 100%
SRPK2
  Percent Control: 70%
TGFBR1
  Percent Control: 100%
TYRO3
  Percent Control: 92%
WEE2
  Percent Control: 100%
YANK1
  Percent Control: 3.7%
